For this assay, the system named is epithelial breast carcinoma cell line (MDAMB-435). The assay can be described thus: effect of compounds on growth of epithelial breast carcinoma cell line MDAMB-435 (MTT, 5 days). The format is cell-based. To be noted: Homo sapiens, MDA-MB-435, 120 h, MDAMB-435 cells, 5 days post drug addition, 0.1% DMSO. As to the method:
The epithelial breast carcinoma cell line (MDAMB-435) was purchased from ATCC (American Type Cell Culture Collection) and was grown in culture in medium as recommended by ATCC. For analysis of the effect of various compounds on growth of these cells, the cells were plated at a concentration of 1500 cells/well in a 96 well tissue culture plate ("test plate). The day after the cells were plated, the compounds to be analyzed were dissolved in 100% DMSO (dimethyl sulfoxide) to yield at 10 mM stock solution. Each compound was diluted in H2 O to 1 mM and was added to triplicate wells in the first row of a 96 well master plate which contains medium to yield a final concentration of 40 μM. The compounds were then serially diluted in medium in the "master plate". The diluted compound(s) were then transferred to test plates containing cells. A row of vehicle "control cells" received DMSO. The final concentration of DMSO in each well was 0.1%. 5 days post drug addition, the plate was analyzed as follows:
MTT (3-(4-5 methyl thiazole-2-yl)-2,5-diphenyl tetrazolium bromide; thiazolyl blue) was added to each well to yield a final concentration of 1 mg/ml. The plate was then incubated at 37° C. for 21/2-3 hours. The MTT containing medium was then removed and 50 μl of 100% ethanol was added to each well to dissolve the formazan. The absorbences were then read using an automated plate reader (Bio-tek microplate reader).
IC50 's were calculated using the Reed and Munsch equation, see Am. J. Hygiene Vol. 27 pgs. 493-497, 1938.
With `COc1ccc2c(C3=C(c4cn(C)c5cc(N=[N+]=[N-])ccc45)C(=O)NC3=O)cn(C)c2c1` [H H N3 CH3 O, 3-(6-Azido-1-methyl-1H-indol-3-yl)-4-(6-methoxy-1-methyl-1H-indol-3-yl)-pyrrole-2,5,-dione], the IC50 amounted to 70 nM.

Molecule `Cn1cc(C2=C(c3cn(C)c4cc(Br)ccc34)C(=O)NC2=O)c2ccc(N)cc21` [H H NH2 Br, 3-(6-Amino-1-methyl-1H-indol-3-yl)-4-(6-bromo-1-methyl-1H-indol-3-yl)-pyrrole-2,5-dione] registered an IC50 of 4 nM.

The molecule `COc1ccc2c(C3=C(c4cn(C)c5cc(N)ccc45)C(=O)NC3=O)cn(C)c2c1` [H H NH2 CH3 O, 3-(6-Amino-1-methyl-1H-indol-3-yl)-4-(6-methoxy-1-methyl-1H-indol-3-yl)-pyrrole-2,5-dione] gave an IC50 of 15 nM.

As to `Cn1cc(C2=C(c3cn(C)c4cc(C#N)ccc34)C(=O)NC2=O)c2ccc(N)cc21` [H H NH2 CN, 3-[4-(6-Amino-1-methyl-1H-indol-3-yl)-2,5-dioxo-2,5-dihydro-1H-pyrrol-3-yl]-1-methyl-1H-indole-6-carbonitrile], the IC50 was < 10 nM.

In the case of `COC(=O)c1ccc2c(C3=C(c4cn(C)c5cc(N)ccc45)C(=O)NC3=O)cn(C)c2c1` [H H NH2 CO2 CH3, 3-[4-(6-Amino-1-methyl-1H-indol-3-yl)-2,5-dioxo-2,5-dihydro-1H-pyrrol-3-yl] -1-methyl-1H-indole-6-carboxylic acid methyl ester], the IC50 is 50 nM.

The molecule `Cn1cc(C2=C(c3cn(C)c4cc(Cl)ccc34)C(=O)NC2=O)c2ccc(N)cc21` [H H NH2 Cl, 3-(6-Amino-1-methyl-1H-indol-3-yl)-4-(6-chloro-1-methyl-1H-indol-3-yl)-pyrrole-2,5-dione] returned an IC50 of 12 nM.

For `CCOc1ccc2c(C3=C(c4cn(C)c5cc(N)ccc45)C(=O)NC3=O)cn(C)c2c1` [H H NH2 EtO], half-maximal inhibition (IC50) required 12 nM.

`Cn1cc(C2=C(c3cn(C)c4cc(F)ccc34)C(=O)NC2=O)c2ccc(N)cc21` [H H NH2 F, 3-(6-Amino-1-methyl-1H-indol-3-yl)-4-(6-fluoro-1-methyl-1H-indol-3-yl)-pyrrole-2,5-dione] had an IC50 of 42 nM.

The molecule `Cn1cc(C2=C(c3cn(C)c4cc(N)ccc34)C(=O)NC2=O)c2ccc(N)cc21` [H H NH2 NH2, 3,4-bis-(1-methyl-6-amino-1H-indol-3-yl)-pyrrole-2,5-dione] returned an IC50 of 700 nM.

Turning to `Cn1cc(C2=C(c3cn(C)c4cc([N+](=O)[O-])ccc34)C(=O)NC2=O)c2ccc(N)cc21` [H H NH2 NO2, 3-(6-Amino-1-methyl-1H-indol-3-yl)-4-(1-methyl-6-nitro-1H-indol-3-yl)-pyrrole-2,5-dione], the IC50 is < 10 nM.

Molecule `Cn1cc(C2=C(c3cn(C)c4cc([N+](=O)[O-])ccc34)C(=O)NC2=O)c2ccc(Cl)cc21` [H H NO2 Cl, 3-(6-chloro-1-methyl-1H-indol-3-yl)-4-(1-methyl-6-nitro-1H-indol-3-yl)-pyrrole-2,5-dione] displayed an IC50 of 70 nM.

`Cn1cc(C2=C(c3cn(C)c4cc([N+](=O)[O-])ccc34)C(=O)NC2=O)c2ccc(F)cc21` [H H NO2 F, 3-(6-fluoro-1-methyl-1H-indol-3-yl)-4-(1-methyl-6-nitro-1H-indol-3-yl)-pyrrole-2,5-dione] returned an IC50 of 70 nM.

`Cn1cc(C2=C(c3cn(C)c4cc([N+](=O)[O-])ccc34)C(=O)NC2=O)c2ccc([N+](=O)[O-])cc21` [H H NO2 NO2, 3,4-Bis-(1-methyl-6-nitro-1H-indol-3-yl)-pyrrole-2,5-dione] showed an IC50 of 70 nM.

For `Cn1cc(C2=C(c3cn(C)c4cc([N+](=O)[O-])ccc34)C(=O)NC2=O)c2ccc(OCc3ccccc3)cc21` [H H NO2 Obenzyl, 3-(6-benzyloxy-1-methyl-1H-indol-3-yl)-4-(1-methyl-6-nitro-1H-indol-3-yl)-pyrrole-2,5-dione], the IC50 turned out to be 90 nM.

Molecule `CSc1ccc2c(C3=C(c4cn(C)c5cc([N+](=O)[O-])ccc45)C(=O)NC3=O)cn(C)c2c1` [H H NO2 SCH3, 3-(1-Methyl-6-methylsulfanyl-1H-indol-3-yl)-4-(1-methyl-6-nitro-1H-indol-3-yl)-pyrrole-2,5-dione] yielded an IC50 of 9 nM.

Molecule `COc1ccc2c(C3=C(c4cn(C)c5cc([N+](=O)[O-])ccc45)C(=O)NC3=O)cn(C)c2c1` [H H OCH3 NO2, 3-(6-methoxy-1-methyl-1H-indol-3-yl)-4-(1-methyl-6-nitro-1H-indol-3-yl)-pyrrole-2,5-dione] registered an IC50 of 7 nM.

The molecule `COc1ccc2c(C3=C(c4cn(C)c5cc(OC)ccc45)C(=O)NC3=O)cn(C)c2c1` [H H OCH3 OCH3, 3,4-Bis-(6-methoxy-1-methyl-1H-indol-3-yl)-pyrrole-2,5-dione] showed an IC50 of 5 nM.

`Cn1cc(C2=C(c3cn(C)c4cc([N+](=O)[O-])ccc34)C(=O)NC2=O)c2cc([N+](=O)[O-])ccc21` [H NO2 H NO2, 3-(1-methyl-5-nitro-1H-indol-3-yl)-4-(1-methyl-6-nitro-1H-indol-3-yl)-pyrrole-2,5-dione] registered an IC50 of 830 nM.

The IC50 is the concentration that inhibits the measured activity by half.
